Source: ChEMBL document CHEMBL1201862, “PubChem BioAssay data set” (2004)
The source made the active and inactive calls.

Key:
[1] = target: Large T antigen (Simian virus 40, UniProt P03070); format: functional, Betapolyomavirus macacae;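 also: Confirmatory-stage PubChem screen for compounds that inhibit SV40 T antigen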
[2] = HeLa cell cytotoxicity, dose response, cytotoxicity control for MgcRacGAP inhibitor project (AID 624300); format: functional
[3] = target: T1, Rac GTPase-activating protein 1 (Homo sapiens, UniProt Q9H0H5); assay: MgcRacGAP GTPase-activating activity inhibitors, confirmation, biochemical, ADP Hunter fluorescence, primary and confirmatory (AID 624330); format: functional
T1 sequence (Q9H0H5 whole entry): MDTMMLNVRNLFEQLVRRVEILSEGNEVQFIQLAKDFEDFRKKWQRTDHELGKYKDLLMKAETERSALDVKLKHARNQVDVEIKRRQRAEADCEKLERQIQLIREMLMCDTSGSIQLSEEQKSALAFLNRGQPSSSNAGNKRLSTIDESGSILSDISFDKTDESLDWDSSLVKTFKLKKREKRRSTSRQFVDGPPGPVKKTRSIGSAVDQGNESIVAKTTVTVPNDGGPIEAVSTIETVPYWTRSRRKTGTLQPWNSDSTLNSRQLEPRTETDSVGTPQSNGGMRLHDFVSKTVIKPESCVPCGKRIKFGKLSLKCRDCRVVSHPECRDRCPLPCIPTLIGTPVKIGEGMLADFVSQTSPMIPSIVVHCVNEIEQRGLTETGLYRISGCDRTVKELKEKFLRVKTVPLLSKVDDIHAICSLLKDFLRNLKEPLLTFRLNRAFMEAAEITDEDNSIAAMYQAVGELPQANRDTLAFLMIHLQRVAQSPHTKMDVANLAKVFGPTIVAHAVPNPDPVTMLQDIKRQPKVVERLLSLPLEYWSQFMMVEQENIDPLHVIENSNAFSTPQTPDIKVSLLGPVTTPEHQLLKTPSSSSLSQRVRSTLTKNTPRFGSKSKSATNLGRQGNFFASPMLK

[4] = inhibitors of intracellular T. cruzi replication, confirmation, NIH3T3 host cells, beta-gal luminescence (AID 2044); format: functional, cell-based;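 also: intracellular parasites grown in NIH/3T3 mouse fibroblasts as host cells; luminescent beta-galactosidase reporter signal from transgenic T. cruzi replicating inside host cells; inhibitors lower the luminescence signal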
[5] = cytotoxicity toward NIH3T3 fibroblasts, dose response, counter-screen, cell-based, ATP luminescence, mouse fibroblasts (AID 2010); format: functional;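 also: cells exposed to compound for about 90 hours before reading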
[6] = target: T2, Calpain-2 catalytic subunit (Sus scrofa, UniProt P43367); assay: pig calpain II inhibitor potency, dose response, biochemical, fluorogenic peptide substrate (AID 1420); format: functional
T2 sequence (P43367 whole entry): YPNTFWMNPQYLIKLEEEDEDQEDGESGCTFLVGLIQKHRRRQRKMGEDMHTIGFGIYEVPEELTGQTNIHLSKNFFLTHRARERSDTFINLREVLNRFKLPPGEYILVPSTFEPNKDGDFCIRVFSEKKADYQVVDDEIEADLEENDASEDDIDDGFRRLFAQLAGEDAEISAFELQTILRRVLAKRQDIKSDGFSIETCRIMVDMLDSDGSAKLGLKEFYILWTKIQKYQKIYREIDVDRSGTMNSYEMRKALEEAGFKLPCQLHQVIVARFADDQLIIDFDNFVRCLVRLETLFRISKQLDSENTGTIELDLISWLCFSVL

[7] = inhibitors of Vif binding to APOBEC3G peptide, primary screen, biochemical, TR-FRET, GST-Vif 1-94, biotin-A3G peptide, dose response retest (AID 1117319); format: functional;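 also: TR-FRET signal of purified GST-Vif binding a biotinylated A3G peptide; inhibitors lower the FRET signal by blocking Vif and A3G binding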
[8] = P. falciparum late gametocyte killing, dose response, luminescence (AID 1117278); format: functional, cell-based;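 also: gametocytes exposed to compound for 24 hours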
[9] = Jurkat T cell cytotoxicity, dose response, cytotoxicity control for P. falciparum gametocyte viability project, luminescence (AID 1117277); format: functional, cell-based;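 also: potency reflects loss of cellular ATP meaning fewer viable cells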
[10] = A Cell Based Secondary Assay To Explore Cytotoxicity of Compounds that Sensitize Mycobacterium Tuberculosis to Beta-Lactam Antibiotics.; format: functional
[11] = target: Cytochrome P450 2C19 (Homo sapiens, UniProt P33261); assay: Cytochrome panel assay with activity outcomes. Panel member name: p450-cyp2c19 Compounds with AC50 equal or less than 10 uM are considered active; format: functional; conditions: read-out: AC50
Chain of Cytochrome P450 2C19 (P33261 whole entry): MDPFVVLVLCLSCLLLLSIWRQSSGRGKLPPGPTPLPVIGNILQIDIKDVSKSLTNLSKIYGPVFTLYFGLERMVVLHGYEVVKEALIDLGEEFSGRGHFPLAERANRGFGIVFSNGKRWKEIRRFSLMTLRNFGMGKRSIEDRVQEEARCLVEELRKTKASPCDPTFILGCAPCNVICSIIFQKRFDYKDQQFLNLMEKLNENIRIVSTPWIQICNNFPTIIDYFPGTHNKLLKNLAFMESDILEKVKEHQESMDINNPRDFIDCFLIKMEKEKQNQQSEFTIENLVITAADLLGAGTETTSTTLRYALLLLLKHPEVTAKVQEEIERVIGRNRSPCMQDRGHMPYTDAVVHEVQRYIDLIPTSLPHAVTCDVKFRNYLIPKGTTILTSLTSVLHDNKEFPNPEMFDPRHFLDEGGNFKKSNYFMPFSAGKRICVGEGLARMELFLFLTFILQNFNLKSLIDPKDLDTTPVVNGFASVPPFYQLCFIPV

[12] = target: Cytochrome P450 2D6 (Homo sapiens, UniProt P10635);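 also: CYP2D6 member of a cytochrome P450 panel assay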
Chain of Cytochrome P450 2D6 (P10635 whole entry): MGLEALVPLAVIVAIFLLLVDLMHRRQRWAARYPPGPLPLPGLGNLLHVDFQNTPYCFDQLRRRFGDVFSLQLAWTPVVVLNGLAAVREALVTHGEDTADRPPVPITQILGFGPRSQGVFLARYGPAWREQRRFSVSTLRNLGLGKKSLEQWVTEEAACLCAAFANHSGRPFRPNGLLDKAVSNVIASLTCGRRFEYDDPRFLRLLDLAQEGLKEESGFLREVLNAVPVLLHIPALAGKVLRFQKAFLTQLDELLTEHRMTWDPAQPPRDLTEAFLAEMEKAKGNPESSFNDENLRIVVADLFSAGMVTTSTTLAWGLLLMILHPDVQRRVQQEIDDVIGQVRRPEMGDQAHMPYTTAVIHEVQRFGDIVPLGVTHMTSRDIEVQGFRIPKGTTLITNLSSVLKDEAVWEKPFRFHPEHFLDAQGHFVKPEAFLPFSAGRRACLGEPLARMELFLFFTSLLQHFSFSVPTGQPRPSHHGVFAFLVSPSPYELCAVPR

[13] = test system: HeLa; assay: HeLa cell cytotoxicity, dose response, cytotoxicity control, 24 h, cherry-picked samples (AID 504726); format: functional, cell-based; conditions: Homo sapiens;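 also: potency for cytotoxicity as loss of luminescence signal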
[14] = Luminescence Cell-Based Dose Retest to Confirm Inhibitors of Cancer Stem Cells. [Related pubchem assays (depositor defined):AID2717, AID2721]; format: functional; conditions: Homo sapiens
[15] = target: Heat shock protein HSP 90-alpha (Homo sapiens, UniProt P07900); format: functional, organism-based
[16] = HEK293 cell cytotoxicity, dose response, cytotoxicity control, plate reader, cherry-picked samples (AID 743446); format: functional, cell-based
[17] = LGR2 antagonists, dose response, cell-based, HEK293, CRE-luciferase reporter, cherry pick, set 2 (AID 743343); format: functional;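 also: transfected cells were stimulated with diluted bursicon conditioned medium after compound addition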
[18] = MC4R antagonists, dose response, counter-screen for LGR2 antagonist project, cell-based, plate reader, cherry pick (AID 743444); format: functional;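 also: transfected HEK 293 cells stimulated with alpha-MSH peptide; potency of inhibitors of the alpha-MSH evoked signal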
[19] = HepG2 cell cytotoxicity, dose response, cytotoxicity control, plate reader, cherry-pick, antagonist series (AID 743416); format: functional, cell-based
[20] = A549 cell cytotoxicity, dose response, cytotoxicity control, plate reader, cherry-pick, antagonist series (AID 743412); format: functional, cell-based
[21] = P. falciparum 3D7-ScDHODH growth inhibitors, dose response, SYBR Green, dry powder samples (AID 1159570); format: functional, cell-based;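 also: parasite growth measured after 72 hours of compound exposure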
[22] = P. falciparum Dd2 growth inhibitors, dose response, SYBR Green, cherry-picked samples (AID 1159567); format: functional, cell-based
[23] = P. falciparum Dd2 growth inhibitors, dose response, SYBR Green, dry powder samples (AID 1159566); format: functional, cell-based;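 also: potency for growth inhibition with lower SYBR green DNA signal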
[24] = P. falciparum ATP4 D1247Y mutant growth inhibitors, dose response, NITD609-resistant line, SYBR Green, dry powder (AID 1159571); format: functional, cell-based;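 also: parasites synchronized at ring stage by sorbitol before testing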
[25] = target: T3, Corticotropin-releasing factor receptor 2/Corticotropin-releasing factor-binding protein (Homo sapiens, UniProt P24387+Q13324); assay: activators of CRF receptor 2 with binding protein – uHTS hits, confirmation (AID 602473); format: functional; conditions: read-out: EC50_Mean
T3 sequence (Q13324 whole entry): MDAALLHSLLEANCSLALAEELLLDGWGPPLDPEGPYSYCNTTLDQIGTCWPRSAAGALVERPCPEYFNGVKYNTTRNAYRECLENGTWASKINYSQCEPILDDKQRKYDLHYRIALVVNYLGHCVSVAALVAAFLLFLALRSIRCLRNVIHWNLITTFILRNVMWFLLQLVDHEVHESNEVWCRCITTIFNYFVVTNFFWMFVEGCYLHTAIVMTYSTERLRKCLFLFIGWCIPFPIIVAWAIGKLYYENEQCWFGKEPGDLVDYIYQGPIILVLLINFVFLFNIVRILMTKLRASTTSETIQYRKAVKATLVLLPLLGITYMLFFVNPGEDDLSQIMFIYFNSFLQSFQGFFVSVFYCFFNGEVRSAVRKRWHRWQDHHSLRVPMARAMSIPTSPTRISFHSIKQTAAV
T3 sequence (P24387 whole entry): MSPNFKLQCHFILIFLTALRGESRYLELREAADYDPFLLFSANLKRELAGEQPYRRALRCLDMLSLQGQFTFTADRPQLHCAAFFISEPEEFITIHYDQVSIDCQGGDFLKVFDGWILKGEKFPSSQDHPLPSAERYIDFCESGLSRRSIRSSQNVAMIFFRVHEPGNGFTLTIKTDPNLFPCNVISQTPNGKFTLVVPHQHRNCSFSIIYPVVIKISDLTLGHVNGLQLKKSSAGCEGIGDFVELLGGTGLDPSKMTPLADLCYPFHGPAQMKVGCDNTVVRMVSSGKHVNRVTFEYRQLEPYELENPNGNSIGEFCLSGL

[26] = test system: H9c2; assay: cells; format: functional, cell-based; conditions: Rattus norvegicus, H9c2, Myocardium;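 also: confirmatory concentration-response retest of ultra-high-throughput screening hits for modulation of myocardial damage; cell death induced by hydrogen peroxide oxidative stress; compound pretreatment for 60 min then peroxide exposure for 2 h; potency is for protecting the cells against peroxide damage rather than for killing them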

Chain of Large T antigen (P03070 whole entry): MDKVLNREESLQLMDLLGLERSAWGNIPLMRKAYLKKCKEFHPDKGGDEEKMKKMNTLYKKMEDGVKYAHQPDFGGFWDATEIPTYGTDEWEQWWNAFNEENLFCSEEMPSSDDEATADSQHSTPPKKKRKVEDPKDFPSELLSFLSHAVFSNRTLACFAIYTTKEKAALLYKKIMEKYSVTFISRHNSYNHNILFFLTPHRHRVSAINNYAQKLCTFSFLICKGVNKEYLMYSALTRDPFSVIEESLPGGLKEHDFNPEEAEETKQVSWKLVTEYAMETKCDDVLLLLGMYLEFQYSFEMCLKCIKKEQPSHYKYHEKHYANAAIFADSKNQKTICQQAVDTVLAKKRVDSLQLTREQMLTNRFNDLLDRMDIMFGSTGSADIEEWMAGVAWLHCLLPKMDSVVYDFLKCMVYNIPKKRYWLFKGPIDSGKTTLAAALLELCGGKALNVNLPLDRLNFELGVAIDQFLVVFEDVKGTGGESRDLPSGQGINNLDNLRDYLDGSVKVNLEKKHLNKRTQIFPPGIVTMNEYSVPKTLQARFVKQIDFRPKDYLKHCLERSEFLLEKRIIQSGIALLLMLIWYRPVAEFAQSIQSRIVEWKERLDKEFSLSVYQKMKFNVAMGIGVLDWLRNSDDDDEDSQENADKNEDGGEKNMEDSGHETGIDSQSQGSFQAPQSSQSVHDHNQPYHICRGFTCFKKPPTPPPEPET

## COc1cc(-c2nc3cnccn3c2Nc2ccccc2)ccc1O
[1]
  IC50: 5.05 µM (active)

## Cc1cc(Cl)cc(C)c1OCCOCCNCc1ccccc1
[2]
  CC50: 100 µM (active)
[3]
  IC50: 128 µM (active)

## CCS(=O)(=O)NCC(c1cccnc1)N1CCN(c2ccc(OC)cc2)CC1 (configuration not stated)
[4]
  EC50: 0.916 µM (active)
[5]
  EC50: 22 µM (active)
[6]
  IC50: 24.7 µM (not active)

## CCOc1cccc(SCc2noc(C(=O)NCC3CCCO3)c2C(=O)O)c1 (configuration not stated)
[7]
  IC50: > 100 µM (active)

## Cc1ccc(N=Nc2ccc(N)cc2C)c(S(N)(=O)=O)c1
[7]
  IC50: > 100 µM (active)

## CCCCN(CC)CCNC(=O)CN(C)S(=O)(=O)c1ccc2c(c1)c(=O)n(C)c(=O)n2C
[8]
  IC50: > 109 µM (inactive)
[9]
  IC50: > 83.3 µM (inactive)

## COc1ccc(OC)c(/C(O)=C/C(=O)C(=O)Nc2ccccc2OC)c1
[7]
  IC50: > 100 µM (active)

## CN(C)S(=O)(=O)N(CC(=O)Nc1ccccc1)c1ccccc1
[8]
  IC50: > 109 µM (inactive)
[9]
  IC50: > 83.3 µM (inactive)

## CC(=O)Nc1nonc1-c1nc2ccccc2n1CCC(C)C
[10]
  CC50: > 40 µM (active)

## Cc1[nH]c2c(C)cccc2c1CCNC(=O)c1ccc2c(c1[N+](=O)[O-])C(=O)c1ccccc1C2=O
[11]
  AC50: 0.398 µM (inconclusive)
[12]
  AC50: 2 µM (inconclusive)
[10]
  CC50: 17.2 µM (active)

## COC(=O)C1=C(c2ccc(OC(F)(F)F)cc2)C[C@@H]2CC[C@H]1N2C(=O)NC1CCCCC1
[13]
  AC50: > 350 µM (inactive)

## O=C(/C=C/c1ccc2c(c1)OCO2)Nc1nc2ccccc2s1
[10]
  CC50: > 40 µM (active)

## Cc1cc2ccccn2c1C(=O)c1ccc([N+](=O)[O-])o1
[14]
  AC50: 2.84 µM (active)
[15]
  AC50: 3.38 µM (active)
[10]
  CC50: 8.69 µM (active)

## Cc1cc(C(=O)NCc2cccnc2)no1
[8]
  IC50: > 109 µM (inactive)
[9]
  IC50: > 83.3 µM (inactive)

## N#C/C(=C\c1ccc(-c2ccccc2[N+](=O)[O-])o1)C(N)=O
[13]
  AC50: 83.5 µM (active)

## CCC(CC)C(=O)Nc1ccc(S(=O)(=O)Nc2nccs2)cc1
[6]
  IC50: 11.7 µM (not active)

## CCc1nc(C)ccc1OC(=O)C12CC3CC(CC(C3)C1)C2
[6]
  IC50: 8.73 µM (not active)

## Oc1nc(-c2ccccc2Cl)nc2c1sc(=S)n2-c1ccccc1
[6]
  IC50: 41.7 µM (not active)

## COc1ccc(CN2CCN(Cc3ccccc3)CC2)c(OC)c1
[8]
  IC50: > 109 µM (inactive)
[9]
  IC50: > 83.3 µM (inactive)

## C1CCN(CCCNC2C3CC4CC(C3)CC2C4)C1 (configuration not stated)
[8]
  IC50: > 109 µM (inactive)
[9]
  IC50: > 83.3 µM (inactive)

## CN(Cc1nc(-c2cnccn2)no1)Cc1[nH]nc2c1CCCC2
[6]
  IC50: 7.73 µM (not active)

## COc1ccc(C(=O)Nc2nc3ccccc3[nH]2)cc1
[16]
  AC50: > 52 µM (inactive)
[17]
  AC50: 2.45 µM (active)
[18]
  AC50: 2.84 µM (active)
[19]
  AC50: > 52 µM (inactive)
[20]
  AC50: 34.6 µM (active)

## CC1=[N+](C)N(c2ccccc2)C(=O)C1/N=C/C=C/c1ccccc1 (configuration not stated)
[13]
  AC50: 308 µM (active)

## C[C@@H]1CN([C@H](C)CO)C(=O)c2cc(/C=C/c3ccccc3)cnc2O[C@H]1CN(C)C(=O)NC1CCCCC1
[21]
  AC50: 2.03 µM (active)
[22]
  AC50: 2.73 µM (active)
[23]
  AC50: 1.06 µM (active)
[24]
  AC50: 1.76 µM (active)

## Cc1ccc(CN2CCN(Cc3ccccc3C(F)(F)F)CC2)cc1
[2]
  CC50: 100 µM (active)
[3]
  IC50: 40.4 µM (active)

## O=C1NC(=O)N(Cc2ccc(F)cc2)C(=O)/C1=C\c1ccoc1
[1]
  IC50: 56.4 µM (active)

## O=C(CCN1CCOCC1)c1ccc(N2CCCCC2)cc1
[10]
  CC50: 29.2 µM (active)

## Nc1ccc(Cn2ccc3c4c(N)nc(N)nc4ccc32)cc1
[2]
  CC50: 49.5 µM (active)
[3]
  IC50: 77 µM (active)

## CCn1c(SCC(=O)n2c(C)c(C)c3ccccc32)nnc1-c1ccco1
[7]
  IC50: > 100 µM (active)

## CC(C)(C)/N=C/c1c(O)ccc2oc3c(c12)CCCC3
[25]
  EC50: > 53 µM (inactive)
[26]
  IC50: > 79 µM (inactive)
